system: GABAA receptors; assay: Electrophysiology assay (two-electrode voltage clamp, Xenopus oocytes expressing GABAA receptors); assay type: cell-based; details: positive (Pos) or negative (Neg) modulation of current at GABA EC20, screening concentration of 10 μM
Method: The modulation of GABAA function is determined by changes in current as determined in an electrophysiology assay, as is detailed below.
mRNA was prepared from lyophilized plasmid pellets containing cDNA inserts encoding the specific GABAA receptor subunit. cDNAs encoding the α2, α3, and γ3 subunits were subcloned into pBluescript, SK^−. cDNAs encoding the a 1 and a 5 subunits were subcloned into prC while cDNA encoding the β2 subunit was subcloned into pcDNA1. The cDNA construct encoding the g 2s subunit is in the pGH19 expression construct. Overnight cultures of transformed DH5a bacterial cells were performed to grow sufficient quantities for maxiprep isolation of the plasmid cDNA. The resulting plasmid cDNA was linearized by digestion with an appropriate restriction enzyme that cleaves distal to the cDNA insert [XbaI (α1, β2), NotI (α3, γ2 s), SacII (α2), or ApaI (α5)]. Following digestion, plasmid cDNA was treated with proteinase K and extracted with phenol/chloroform/isoamyl alcohol, followed by ethanol precipitation. cDNA quality was assessed by agarose-gel electrophoresis (1.5% agarose gel). Samples were stored at −20° C. until use. In vitro transcription was performed with T7 RNA polymerase. mRNA was then stored at −80° C. until use. Plasmids were linearized with appropriate restriction enzymes before in vitro transcription using the Message Machine kit (Ambion, Austin, Tex.).
GABAA receptor expression in Xenopus oocytes: Following 45 min of 0.15% Tricaine anesthesia, an ovarian section containing the follicular oocytes was removed from the frog through a lateral abdominal incision. Oocytes were immediately placed in a calcium-free solution (NaCl 96 mM, MgCl2 1 mM, KCl 2 mM, Hepes 50 mM, pyruvate 2.5 mM, gentamycin 100 μg/mL, penicillin-streptomycin 50 U/mL, pH 7.4). Following 1.5-2 hour incubation in 0.2% collagenase (type II, Sigma Chemical Co., St. Louis, Mo.) at room temperature, individual Dumont stage V and VI oocytes were transferred to an incubator and maintained overnight in Barth's solution (NaCl 84 mM, NaHCO3 2.4 mM, MgSO4 0.82 mM, KCl 1 mM, Ca(NO3)2 0.33 mM, CaCl2 0.41 mM, Tris/HCl 7.5 mM, pyruvate 2.5 mM, gentamycin 50 μg/mL, penicillin-streptomycin, 100 units/mL, pH 7.4) at 18-20° C. and used for experiments 1-5 days post-injection. Oocytes were injected solution using an electronic microinjector (Drummond, Broomall, Pa.) with 50 nL of RNA containing 0.3-0.5 ng of each subunit RNA in a 1:1:2 ratio. The injected oocytes were used for experiments after 1-5 days of incubation in Barth's solution at 18-20° C.
Measurements of ion currents from oocytes expressing GABAA receptors were performed using a Warner two-electrode voltage-clamp amplifier (Warner Instruments, Inc., Foster City, Calif.) (Park-Chung, M. A., et al. (1999) Brain Res. 830: 72-87 incorporated herein in its entirety). Microelectrodes were fabricated from borosilicate glass capillaries with a programmed pipette puller (Sutter Instrument Co., CA). Microelectrode resistance was 1-3 MΩ when filled with 3 M KCl. The oocyte recording chamber was continuously perfused with ND-96 solution. Oocytes were clamped at a holding potential of −70 mV during data acquisition. The membrane current was filtered at 10 Hz and sampled at 100 Hz. Compounds were applied by a gravity-driven external perfusion system. The working volume of the recording chamber was […] and the rate of the perfusion was approximately […]. Compound application was 20-25 sec followed by a minimum of 150 sec wash. Data acquisition and external perfusion was computer controlled by custom-developed software. All experiments were performed at room temperature (22-24° C.). Dose-response data from each oocyte were fitted to the Hill equation by non-linear regression using the equation: IGABA=Emax/(1+(EC50/c)nH)
Emax is the maximum response, EC50 is the concentration producing 50% of the maximal response, nH is the Hill coefficient and c is the concentration of agonist. […]

| Molecule | EP Result |
| --- | --- |
| O=c1c2c[nH]c3ccc(N4CCNCC4)cc3c-2nn1-c1ccccc1 [7a, 2-Phenyl-8-piperazin-1-yl-2,5-dihydro-pyrazolo[4,3-c]quinolin-3-one] | Pos |
| CN1CCN(c2ccc3[nH]cc4c(=O)n(-c5ccccc5)nc-4c3c2)CC1 [7b, 8-(4-Methylpiperazin-1-yl)-2-phenyl-2,5-dihydro-pyrazolo[4,3-c]quinolin-3-one] | Pos |
| O=c1c2c[nH]c3ccc(N4CCNCC4)cc3c-2nn1-c1ccc(Cl)cc1 [7c, 2-(4′-Chlorophenyl)-8-piperazin-1-yl-2,5-dihydro-pyrazolo[4,3-c]quinolin-3-one] | Pos |
| O=c1c2c[nH]c3c(N4CCOCC4)cc(N4CCOCC4)cc3c-2nn1-c1ccccc1 [58a, 6,8-Bis(morpholin-4-yl)-2-phenyl-2,5-dihydro-pyrazolo[4,3-c]quinolin-3-one] | Neg |
| CC(C)N1CCN(c2cc(N3CCN(C(C)C)CC3)c3[nH]cc4c(=O)n(-c5ccccc5)nc-4c3c2)CC1 [58b, 6,8-Bis(4-iso-propylpiperazin-1-yl)-2-phenyl-2,5-dihydro-pyrazolo[4,3-c]quinolin-3-one] | Neg |

target: GABAA central benzodiazepine receptor; assay: Benzodiazepine binding assay ((3H)-flunitrazepam displacement); details: read-out: BZ binding assay (IC50); rat whole brain (except cerebellum), 1 nM (3H)-flunitrazepam, 60 minutes at 25° C.; 3-concentration dose response curve

| Molecule | IC50 [µM] |
| --- | --- |
| 2-Phenyl-6-(4-iso-propylpiperazin-1-yl)-8-trifluoromethyl-2,5-dihydro-pyrazolo[4,3-c]quinolin-3-one [52d] | < 1 |
| O=c1c2c[nH]c3ccc(N4CCNCC4)cc3c-2nn1-c1ccccc1 [7a, 2-Phenyl-8-piperazin-1-yl-2,5-dihydro-pyrazolo[4,3-c]quinolin-3-one] | < 1 |
| CN1CCN(c2ccc3[nH]cc4c(=O)n(-c5ccccc5)nc-4c3c2)CC1 [7b, 8-(4-Methylpiperazin-1-yl)-2-phenyl-2,5-dihydro-pyrazolo[4,3-c]quinolin-3-one] | < 1 |
| O=c1c2c[nH]c3ccc(N4CCNCC4)cc3c-2nn1-c1ccc(Cl)cc1 [7c, 2-(4′-Chlorophenyl)-8-piperazin-1-yl-2,5-dihydro-pyrazolo[4,3-c]quinolin-3-one] | < 1 |
| CC1CN(c2ccc3[nH]cc4c(=O)n(-c5ccccc5)nc-4c3c2)CC(C)O1 (centres unmarked) [19h, 8-(2,6-Dimethylmorpholin-4-yl)-2-phenyl-2,5-dihydro-pyrazolo[4,3-c]quinolin-3-one] | < 1 |
| O=c1c2c[nH]c3cc(N4CCNCC4)c(F)cc3c-2nn1-c1ccccc1 [28a, 8-Fluoro-2-phenyl-7-piperazin-1-yl-2,5-dihydro-pyrazolo[4,3-c]quinolin-3-one] | < 1 |
| CN(C)C1CCN(c2cc3[nH]cc4c(=O)n(-c5ccccc5)nc-4c3cc2F)CC1 [28i, 7-(4-Dimethylaminopiperidin-1-yl)-8-fluoro-2-phenyl-2,5-dihydro-pyrazolo[4,3-c]quinolin-3-one] | < 1 |
| O=c1c2c[nH]c3cc(N4CCN(C5CCCC5)CC4)c(F)cc3c-2nn1-c1ccccc1 [28j, 7-(4-Cyclopentylpiperazin-1-yl)-8-fluoro-2-phenyl-2,5-dihydro-pyrazolo[4,3-c]quinolin-3-one] | < 1 |
| O=c1c2c[nH]c3cc(N4CCC(O)CC4)c(F)cc3c-2nn1-c1ccccc1 [28k, 8-Fluoro-7-(4-hydroxypiperidin-1-yl)-2-phenyl-2,5-dihydro-pyrazolo[4,3-c]quinolin-3-one] | < 1 |
| O=c1c2c[nH]c3cc(N4CCCNCC4)c(F)cc3c-2nn1-c1ccccc1 [28l, 8-Fluoro-7-(perhydro[1,4]-diazepin-1-yl)-2-phenyl-2,5-dihydro-pyrazolo[4,3-c]quinolin-3-one] | < 1 |
| CN1CCCN(c2cc3[nH]cc4c(=O)n(-c5ccccc5)nc-4c3cc2F)CC1 [28m, 8-Fluoro-7-(4-methylperhydro[1,4]-diazepin-1-yl)-2-phenyl-2,5-dihydro-pyrazolo[4,3-c]quinolin-3-one] | < 1 |
| O=c1c2c[nH]c3cc(N4CCNCC4)c(F)cc3c-2nn1-c1ccccc1F [28n, 8-Fluoro-2-(2-fluorophenyl)-7-(piperazin-1-yl)-2,5-dihydro-pyrazolo[4,3-c]quinolin-3-one] | > 1 |
| CN1CCN(c2cc3[nH]cc4c(=O)n(-c5ccccc5F)nc-4c3cc2F)CC1 [28o, 8-fluoro-2-(2-fluorophenyl)-7-(4-methylpiperazin-1-yl)-2,5-dihydro-pyrazolo[4,3-c]quinolin-3-one] | < 1 |
| CN1CCN(c2cc3[nH]cc4c(=O)n(-c5ccsc5)nc-4c3cc2F)CC1 [28q, 8-fluoro-7-(4-methylpiperazin-1-yl)-2-(thiophen-3-yl)-2,5-dihydro-pyrazolo[4,3-c]quinolin-3-one] | > 1 |
| O=c1c2c[nH]c3cc(N4CCOCC4)c(F)cc3c-2nn1-c1ccsc1 [28r, 8-fluoro-7-(morpholin-4-yl)-2-(thiophen-3-yl)-2,5-dihydro-pyrazolo[4,3-c]quinolin-3-one] | < 1 |
| O=c1c2c[nH]c3c(F)c(N4CCNCC4)ccc3c-2nn1-c1ccccc1 [48a, 6-Fluoro-2-phenyl-7-piperazin-1-yl-2,5-dihydro-pyrazolo[4,3-c]quinolin-3-one] | > 1 |
| CN1CCN(c2ccc3c4nn(-c5ccccc5)c(=O)c-4c[nH]c3c2F)CC1 [48b, 6-Fluoro-7-(4-methyl-piperazin-1-yl)-2-phenyl-2,5-dihydro-pyrazolo [4,3-c]quinolin-3-one] | > 1 |
| O=c1c2c[nH]c3c(F)c(N4CCOCC4)ccc3c-2nn1-c1ccccc1 [48c, 6-Fluoro-7-(morpholin-4-yl)-2-phenyl-2,5-dihydro-pyrazolo[4,3-c]quinolin-3-one] | < 1 |
| O=c1c2c[nH]c3c(F)c(N4CCCNCC4)ccc3c-2nn1-c1ccccc1 [48d, 6-Fluoro-7-(perhydro[1,4]-diazepine-1-yl)-2-phenyl-2,5-dihydro-pyrazolo[4,3-c]quinolin-3-one] | < 1 |
| CC(C)N1CCN(c2ccc3c4nn(-c5ccccc5)c(=O)c-4c[nH]c3c2F)CC1 [48e, 6-Fluoro-7-(4-iso-propylpiperazin-1-yl)-2-phenyl-2,5-dihydro-pyrazolo [4,3-c]quinolin-3-one] | < 1 |
| CC(C)N1CCN(c2ccc3c4nn(-c5ccccn5)c(=O)c-4c[nH]c3c2F)CC1 [48f, 6-Fluoro-7-(4-iso-propylpiperazin-1-yl)-2-(2′-pyridyl)-2,5-dihydro-pyrazolo[4,3-c]quinolin-3-one] | < 1 |
| O=c1c2c[nH]c3c(N4CCNCC4)cc(C(F)(F)F)cc3c-2nn1-c1ccccc1 [52a, 2-Phenyl-6-piperazin-1-yl-8-trifluoromethyl-2,5-dihydro-pyrazolo[4,3-c]quinolin-3-one] | < 1 |
| CN1CCN(c2cc(C(F)(F)F)cc3c4nn(-c5ccccc5)c(=O)c-4c[nH]c23)CC1 [52b, 2-Phenyl-6-(4-methylpiperazin-1-yl)-8-trifluoromethyl-2,5-dihydro-pyrazolo[4,3-c]quinolin-3-one] | < 1 |
| O=c1c2c[nH]c3c(N4CCCNCC4)cc(C(F)(F)F)cc3c-2nn1-c1ccccc1 [52c, 2-Phenyl-6-(perhydro[1,4]-diazepine-1-yl)-8-trifluoromethyl-2,5-dihydro-pyrazolo[4,3-c]quinolin-3-one] | < 1 |
| Cc1[nH]c2cc(N3CCNCC3)c(F)cc2c2nn(-c3ccccc3)c(=O)c1-2 [63a, 8-Fluoro-4-methyl-2-phenyl-7-piperazin-1-yl-2,5-dihydro-pyrazolo[4,3-c]quinolin-3-one] | > 1 |
| Cc1[nH]c2cc(N3CCOCC3)c(F)cc2c2nn(-c3ccccc3)c(=O)c1-2 [63b, 8-Fluoro-4-methyl-7-morpholin-4-yl-2-phenyl-2,5-dihydro-pyrazolo [4,3-c]quinolin-3-one] | > 1 |
| O=c1c2c[nH]c3cc(N4CCOCC4)c(F)c(N4CCOCC4)c3c-2nn1-c1ccccc1 [compound 55, 7,9-Bis(morpholin-4-yl)-8-fluoro-2-phenyl-2,5-dihydro-pyrazolo[4,3-c]quinolin-3-one] | < 1 |

Reference: patent US8598159B2, “Therapeutic pyrazoloquinoline derivatives” (Dart Neuroscience (Cayman) Ltd., priority 2007, dated 2013)
